{"source": "patent US20230109708A1", "about": "“Cellular Uptake” (Axcess (UK) Ltd, priority 2020, published 2023)", "key": {"Caco-2 cells [1]": {"test_system": "Caco-2 cells", "assay": "Uptake of FITC-insulin into Caco-2 cells, confocal microscope (Example 1)", "format": "cell-based", "settings": "for uptake of FITC-insulin into cells (photomicrographs): FITC-insulin 100 ug/ml alone or with sodium chenodeoxycholate 1 or 2 mg/ml, 37° C. half an hour", "description": "The supernatant was then removed, replaced with 0.5 ml of 4% paraformaldehyde solution, and incubated at room temperature for 15 minutes. The paraformaldehyde was then removed, the wells were washed three times with phosphate-buffered saline, and the coverslips then treated with mounting medium and viewed under a confocal microscope. Images are set out in FIG. 1."}, "Caco-2 cells [2]": {"test_system": "Caco-2 cells", "assay": "FITC-albumin uptake after chlorpromazine preincubation, fluorescence microscope score (Example 4)", "format": "cell-based", "parameters": "fluorescence score, uptake of FITC-albumin: key to the marks not given beside the values", "settings": "for effect of preincubation with inhibitor on chenodeoxycholate-stimulated uptake of FITC-albumin: preincubation ten minutes, amiloride and nystatin in similar experiments"}, "Caco-2 cells [3]": {"test_system": "Caco-2 cells", "assay": "FITC-albumin uptake with chenodeoxycholate and EDTA, DTPA or EGTA, fluorescence microscope score (Example 9)", "format": "cell-based", "settings": "30 minutes; for fluorescence score, uptake of FITC-albumin: EDTA, DTPA or EGTA 1 mg/ml where present; for enhancement of uptake over and above that seen with chenodeoxycholate alone: agent added at 1 mg/ml to chenodeoxycholate"}, "Caco-2 cells [4]": {"test_system": "Caco-2 cells", "assay": "FITC-hGH uptake with chenodeoxycholate, cells in suspension, plate reader (Example 13)", "format": "cell-based", "settings": "FITC-hGH 100 ug/ml; chenodeoxycholate at different concentrations; 15 minutes", "description": "1 ml of FITC-hGH alone (concentration 100 ug/ml) or FITC-hGH containing chenodeoxycholate at different concentrations were then added."}, "Caco-2 cells [5]": {"test_system": "Caco-2 cells"}, "Caco-2 cells [6]": {"test_system": "Caco-2 cells", "parameters": "key to the marks not given beside the values", "settings": "twenty minutes, PG 2:1 wt:wt where present"}, "Caco-2 cells [7]": {"test_system": "Caco-2 cells", "settings": "for enhancement of uptake of the protein (FITC-albumin): chenodeoxycholate 0.5 mg/ml, EDTA or orthophenanthroline 5 mg/ml, alone or in combination"}, "Caco-2 cells [8]": {"test_system": "Caco-2 cells", "settings": "chenodeoxycholate and EDTA alone or in combination at 1 mg/ml; 15 minutes; cells in suspension"}, "IEC6 cell line": {"test_system": "IEC6 cell line", "settings": "chenodeoxycholate 0.5 mg/ml; different concentrations of EDTA; 15 minutes"}, "Caco-2 cells [9]": {"test_system": "Caco-2 cells", "assay": "Uptake of FITC-albumin or FITC-Casein with chenodeoxycholate, fluorescence microscope score (Example 6)", "format": "cell-based", "settings": "FITC-labelled protein 100 ug/ml with chenodeoxycholate", "description": "The experiment was repeated on two separate occasions on different days."}, "[10]": {"settings": "column Concentration of Chenodeoxycholate 0.5 mg/ml, sample alone, no preincubation"}, "[11]": {"settings": "column Concentration of Chenodeoxycholate 1.0 mg/ml, sample alone, no preincubation"}, "[12]": {"settings": "column Concentration of Chenodeoxycholate 1.5 mg/ml, sample alone, no preincubation"}}, "note": "Like-named read-outs stand apart in the source and are kept apart here."}
{"compound": "C[C@H](CCC(=O)O)[C@H]1CC[C@H]2[C@@H]3[C@H](O)C[C@@H]4C[C@H](O)CC[C@]4(C)[C@H]3CC[C@]12C", "note": "[Cheno alone, sodium chenodeoxycholate]", "values": [{"measurement": "uptake of FITC-insulin into cells (photomicrographs)", "setting": "Caco-2 cells [1]", "result": "uptake is enhanced"}, {"measurement": "fluorescent material in vacuoles within the cells", "setting": "Caco-2 cells [1]; FITC-insulin 100 ug/ml, higher concentration of the bile salt (2 mg/ml)", "result": "clearly being seen in vacuoles within the cells"}, {"measurement": "fluorescence score, uptake of FITC-albumin", "setting": "Caco-2 cells [2]; Cheno 1.0 mg/ml, Chlorpromazine 0 mg/ml", "result": "+++"}, {"measurement": "fluorescence score, uptake of FITC-albumin", "setting": "Caco-2 cells [2]; Cheno 1.5 mg/ml, Chlorpromazine 0 mg/ml", "result": "++"}, {"measurement": "fluorescence score, uptake of FITC-albumin", "setting": "Caco-2 cells [3]; Chenodeoxycholate 0.5 mg/ml", "result": "+"}, {"measurement": "fluorescence score, uptake of FITC-albumin", "setting": "Caco-2 cells [3]; Chenodeoxycholate 1 mg/ml", "result": "++"}, {"measurement": "uptake of hGH (FITC-hGH) into cells", "setting": "Caco-2 cells [4]", "result": "enhances the uptake of hGH into cells in a dose-dependent manner"}, {"measurement": "fluorescence score, uptake of FITC-albumin", "setting": "Caco-2 cells [5]; [10]", "result": "+"}, {"measurement": "fluorescence score, uptake of FITC-albumin", "setting": "Caco-2 cells [5]; [11]", "result": "+++"}, {"measurement": "fluorescence score, uptake of FITC-albumin", "setting": "Caco-2 cells [5]; [12]", "result": "+++"}, {"measurement": "fluorescence score, uptake of FITC-albumin", "setting": "Caco-2 cells [6]; Concentration of Bile Salt 1.0 mg/ml", "result": "++"}, {"measurement": "fluorescence score, uptake of FITC-albumin", "setting": "Caco-2 cells [6]; Concentration of Bile Salt 1.5 mg/ml", "result": "+++"}, {"measurement": "fluorescence score, uptake of FITC-albumin", "setting": "Caco-2 cells [7]; Chenodeoxycholate 0.5 mg/ml, EDTA or orthophenanthroline 5 mg/ml where present, twenty-five minutes", "result": "+"}, {"measurement": "enhancement of uptake of the protein (FITC-albumin)", "setting": "Caco-2 cells [7]", "result": "neither chenodeoxycholate nor EDTA were able to enhance uptake"}, {"measurement": "enhancement of uptake of FITC-albumin", "setting": "Caco-2 cells [8]", "result": "too low to enhance uptake"}]}
{"compound": "CN(C)CCCN1c2ccccc2Sc2ccc(Cl)cc21", "note": "[Chlorpromazine, chlorpromazine]", "values": [{"measurement": "fluorescence score, uptake of FITC-albumin", "setting": "Caco-2 cells [2]; 5000 ug/mL", "result": "++"}, {"measurement": "effect of preincubation with inhibitor on chenodeoxycholate-stimulated uptake of FITC-albumin", "setting": "Caco-2 cells [2]", "result": "concentration-dependent inhibition of uptake"}]}
{"compound": "O=C(O)CN(CCN(CC(=O)O)CC(=O)O)CCN(CC(=O)O)CC(=O)O", "note": "[DTPA]", "values": [{"measurement": "enhancement of uptake over and above that seen with chenodeoxycholate alone", "setting": "Caco-2 cells [3]", "result": "not"}]}
{"compound": "O=C(O)CN(CCN(CC(=O)O)CC(=O)O)CC(=O)O", "note": "[EDTA]", "values": [{"measurement": "enhancement of uptake of BSA by chenodeoxycholate in IEC6 cells", "setting": "IEC6 cell line", "result": "augmented by EDTA in a dose-dependent fashion"}]}
{"compound": "O=C(O)CN(CCOCCOCCN(CC(=O)O)CC(=O)O)CC(=O)O", "note": "[EGTA]", "values": [{"measurement": "enhancement of uptake over and above that seen with chenodeoxycholate alone", "setting": "Caco-2 cells [3]", "result": "not"}]}
{"compound": "C[C@H](CCC(=O)O)[C@H]1CC[C@H]2[C@@H]3[C@@H](O)C[C@@H]4C[C@H](O)CC[C@]4(C)[C@H]3CC[C@]12C", "note": "[Urso, sodium ursodeoxycholate]", "values": [{"measurement": "fluorescence score, uptake of FITC-albumin", "setting": "Caco-2 cells [5]; Urso preincubation 0.1 mg/ml, Chenodeoxycholate 0.5 mg/ml", "result": "−"}, {"measurement": "fluorescence score, uptake of FITC-albumin", "setting": "Caco-2 cells [5]; Urso preincubation 0.1 mg/ml, Chenodeoxycholate 1.0 mg/ml", "result": "++"}, {"measurement": "fluorescence score, uptake of FITC-albumin", "setting": "Caco-2 cells [5]; Urso preincubation 0.1 mg/ml, Chenodeoxycholate 1.5 mg/ml", "result": "++"}, {"measurement": "fluorescence score, uptake of FITC-albumin", "setting": "Caco-2 cells [5]; Urso preincubation 0.5 mg/ml, Chenodeoxycholate 0.5 mg/ml", "result": "−"}, {"measurement": "fluorescence score, uptake of FITC-albumin", "setting": "Caco-2 cells [5]; Urso preincubation 0.5 mg/ml, Chenodeoxycholate 1.0 mg/ml", "result": "+"}, {"measurement": "fluorescence score, uptake of FITC-albumin", "setting": "Caco-2 cells [5]; Urso preincubation 0.5 mg/ml, Chenodeoxycholate 1.5 mg/ml", "result": "++"}, {"measurement": "fluorescence score, uptake of FITC-albumin", "setting": "Caco-2 cells [5]; [10]", "result": "−"}, {"measurement": "fluorescence score, uptake of FITC-albumin", "setting": "Caco-2 cells [5]; [11]", "result": "−"}, {"measurement": "fluorescence score, uptake of FITC-albumin", "setting": "Caco-2 cells [5]; [12]", "result": "−"}, {"measurement": "effect of preincubation on chenodeoxycholate-stimulated uptake of FITC-albumin", "setting": "Caco-2 cells [5]; preincubation ten minutes", "result": "concentration-dependent inhibition of uptake"}]}
{"compound": "N=C(N)NC(=O)c1nc(Cl)c(N)nc1N", "note": "[amiloride]", "values": [{"measurement": "effect of preincubation with inhibitor on chenodeoxycholate-stimulated uptake of FITC-albumin", "setting": "Caco-2 cells [2]", "result": "no reduction in uptake"}]}
{"compound": "C[C@@H]1[C@H](O)[C@@H](C)/C=C/C=C/CC/C=C/C=C/C=C/C=C/C(O[C@H]2O[C@H](C)[C@@H](O)[C@H](N)[C@@H]2O)CC2O[C@](O)(CC(O)C(O)CCC(O)CC(O)CC(O)CC(=O)O[C@H]1C)CC(O)C2C(=O)O", "note": "(some centres unmarked) [nystatin]", "values": [{"measurement": "effect of preincubation with inhibitor on chenodeoxycholate-stimulated uptake of FITC-albumin", "setting": "Caco-2 cells [2]", "result": "no reduction in uptake"}]}
{"compound": "c1cnc2c(c1)ccc1cccnc12", "note": "[o-phenanthroline]", "values": [{"measurement": "enhancement of uptake of the protein (FITC-albumin)", "setting": "Caco-2 cells [7]", "result": "does not have this effect"}]}
{"compound": "Casein", "values": [{"measurement": "extent of chenodeoxycholate-mediated uptake of the protein", "setting": "Caco-2 cells [9]", "result": "uptake of a similar extent"}]}
{"compound": "insulin: FITC-insulin, fluorescent labelled protein cargo", "values": [{"measurement": "uptake of FITC-insulin into cells (photomicrographs)", "setting": "Caco-2 cells [1]", "result": "very little uptake"}]}
